Test results from US9266878B2, “Phosphatidylinositol 3-kinase inhibitors” (Gilead Calistoga LLC, priority 2012, dated 2016).

What was measured:
[1] = biological target: PI3Kα (Homo sapiens (Human), UniProt P42336); test: Enzymatic activity of PI3K isoforms, TR-FRET assay (PIP3 formation); assay type: biochemical; conditions: bound given in uM
Description: (§1) Enzymatic activity of the class I PI3K isoforms was measured using a time-resolved fluorescence resonance energy transfer (TR-FRET) assay that monitors formation of the product 3,4,5-inositol triphosphate molecule (PIP3), as it competes with fluorescently labeled PIP3 for binding to the GRP-1 pleckstrin homology domain protein. An increase in […] product results in a decrease in TR-FRET signal as the labeled fluorophore is displaced from the GRP-1 protein binding site.
(§2) Class I PI3K isoforms were expressed and purified as heterodimeric recombinant proteins. All assay reagents and buffers for the TR-FRET assay were purchased from Millipore. […] After an assay reaction time of 30 minutes at 25° C., reactions were terminated with a final concentration of 10 mM EDTA, 10 nM labeled-PIP3, and 35 nM Europium labeled GRP-1 detector protein before reading TR-FRET on an Envision plate reader (Ex: 340 nm; Em: 615/665 nm; 100 μs delay and 500 μs read window).
(§3) IC50 are reported in units of nM. These assays generally produced results within 3-fold of the reported mean.

[2] = biological target: PI3Kδ (Homo sapiens (Human), UniProt O00329); test: as above; assay type: biochemical; conditions: bound given in nM
Description: as §1, §2, §3

Chain of PI3Kα (P42336 whole entry, the tested form may be a part, canonical isoform): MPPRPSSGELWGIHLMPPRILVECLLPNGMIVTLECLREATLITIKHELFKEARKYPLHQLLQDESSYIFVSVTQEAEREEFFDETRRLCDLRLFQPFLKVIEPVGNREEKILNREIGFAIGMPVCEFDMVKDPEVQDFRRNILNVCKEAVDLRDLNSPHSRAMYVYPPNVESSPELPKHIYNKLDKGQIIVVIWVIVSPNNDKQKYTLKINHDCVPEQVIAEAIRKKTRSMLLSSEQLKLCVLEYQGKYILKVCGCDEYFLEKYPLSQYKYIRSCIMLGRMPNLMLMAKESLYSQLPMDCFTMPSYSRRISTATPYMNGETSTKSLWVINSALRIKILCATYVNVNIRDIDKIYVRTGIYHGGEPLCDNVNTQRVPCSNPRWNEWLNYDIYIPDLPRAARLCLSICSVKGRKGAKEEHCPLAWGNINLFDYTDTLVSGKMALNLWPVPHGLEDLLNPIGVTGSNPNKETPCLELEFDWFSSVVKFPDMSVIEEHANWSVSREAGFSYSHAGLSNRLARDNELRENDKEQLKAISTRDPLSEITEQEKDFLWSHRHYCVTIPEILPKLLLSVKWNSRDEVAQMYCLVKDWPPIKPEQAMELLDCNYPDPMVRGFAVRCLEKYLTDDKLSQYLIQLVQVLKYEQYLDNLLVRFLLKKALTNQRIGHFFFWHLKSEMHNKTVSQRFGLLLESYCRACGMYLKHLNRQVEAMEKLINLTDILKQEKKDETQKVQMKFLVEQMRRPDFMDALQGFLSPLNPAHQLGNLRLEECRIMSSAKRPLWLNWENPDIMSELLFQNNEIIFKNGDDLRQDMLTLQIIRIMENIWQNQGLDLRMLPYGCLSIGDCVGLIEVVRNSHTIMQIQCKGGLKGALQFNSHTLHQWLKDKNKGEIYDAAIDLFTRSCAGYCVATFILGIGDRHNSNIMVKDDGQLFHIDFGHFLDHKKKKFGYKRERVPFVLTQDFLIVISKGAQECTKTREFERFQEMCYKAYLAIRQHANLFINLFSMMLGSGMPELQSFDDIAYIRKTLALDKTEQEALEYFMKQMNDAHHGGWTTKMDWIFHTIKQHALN
Chain of PI3Kα (P27986 whole entry partner, the tested form may be a part, canonical isoform): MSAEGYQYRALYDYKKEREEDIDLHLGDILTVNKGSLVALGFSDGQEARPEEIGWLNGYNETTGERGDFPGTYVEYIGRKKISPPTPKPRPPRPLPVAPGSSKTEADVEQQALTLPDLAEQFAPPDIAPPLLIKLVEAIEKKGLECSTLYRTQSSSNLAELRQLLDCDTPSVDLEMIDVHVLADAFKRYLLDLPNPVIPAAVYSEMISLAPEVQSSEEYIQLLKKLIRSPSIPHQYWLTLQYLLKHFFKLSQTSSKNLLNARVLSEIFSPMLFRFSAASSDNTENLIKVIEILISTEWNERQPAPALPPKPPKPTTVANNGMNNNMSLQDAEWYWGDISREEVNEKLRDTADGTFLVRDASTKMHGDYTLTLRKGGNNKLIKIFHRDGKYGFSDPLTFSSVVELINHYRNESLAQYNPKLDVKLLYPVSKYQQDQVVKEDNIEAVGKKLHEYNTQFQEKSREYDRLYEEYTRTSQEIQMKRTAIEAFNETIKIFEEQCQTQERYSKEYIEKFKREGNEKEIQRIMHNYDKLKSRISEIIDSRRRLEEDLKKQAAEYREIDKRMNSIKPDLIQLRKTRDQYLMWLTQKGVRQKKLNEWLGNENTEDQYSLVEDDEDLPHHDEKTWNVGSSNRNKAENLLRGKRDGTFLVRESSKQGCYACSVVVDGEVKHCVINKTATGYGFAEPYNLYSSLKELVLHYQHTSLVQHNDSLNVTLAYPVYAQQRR
Chain of PI3Kδ (O00329 whole entry): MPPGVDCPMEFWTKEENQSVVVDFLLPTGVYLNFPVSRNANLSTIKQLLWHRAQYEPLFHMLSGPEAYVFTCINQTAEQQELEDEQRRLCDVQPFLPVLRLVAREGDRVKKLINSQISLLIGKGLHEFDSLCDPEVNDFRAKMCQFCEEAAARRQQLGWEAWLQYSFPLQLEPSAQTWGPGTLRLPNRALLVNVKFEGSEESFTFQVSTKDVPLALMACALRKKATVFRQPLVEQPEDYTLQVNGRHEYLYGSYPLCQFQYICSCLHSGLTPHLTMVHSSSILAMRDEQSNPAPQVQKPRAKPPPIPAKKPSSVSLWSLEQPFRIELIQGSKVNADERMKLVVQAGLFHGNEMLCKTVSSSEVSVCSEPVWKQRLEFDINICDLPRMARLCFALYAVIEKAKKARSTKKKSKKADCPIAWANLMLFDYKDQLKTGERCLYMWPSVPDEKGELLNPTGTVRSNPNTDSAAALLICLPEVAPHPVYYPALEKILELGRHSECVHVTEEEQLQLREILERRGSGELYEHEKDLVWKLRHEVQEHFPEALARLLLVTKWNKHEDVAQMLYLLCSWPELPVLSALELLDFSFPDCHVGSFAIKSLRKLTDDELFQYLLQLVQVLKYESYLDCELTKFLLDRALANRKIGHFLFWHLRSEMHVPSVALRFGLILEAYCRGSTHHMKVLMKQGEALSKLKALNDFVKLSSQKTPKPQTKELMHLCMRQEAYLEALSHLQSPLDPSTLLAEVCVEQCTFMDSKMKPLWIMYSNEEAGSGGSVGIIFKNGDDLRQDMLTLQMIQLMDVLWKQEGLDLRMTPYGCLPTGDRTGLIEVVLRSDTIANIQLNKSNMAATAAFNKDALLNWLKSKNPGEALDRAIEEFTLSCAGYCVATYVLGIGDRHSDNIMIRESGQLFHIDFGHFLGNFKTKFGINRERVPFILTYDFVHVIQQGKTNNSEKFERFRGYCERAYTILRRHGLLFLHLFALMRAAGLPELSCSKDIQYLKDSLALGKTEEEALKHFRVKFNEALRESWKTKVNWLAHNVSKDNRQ
Chain of PI3Kδ (P27986 whole entry partner): as the sequence (P27986 whole entry partner, the tested form may be a part, canonical isoform) above

SMILES | IC50 [1] [µM] | IC50 [2] [nM]
C[C@H](Nc1ncnc(N)c1C#Cc1cc(C(F)(F)F)ccn1)c1nc2cccc(Cl)c2c(=O)n1-c1ccccc1 [Compound 148a, (S)-2-(1-((6-amino-5-((4-(trifluoromethyl)pyridin-2-yl)ethynyl)pyrimidin-4-yl)amino)ethyl)-5-chloro-3-phenylquinazolin-4(3H)-one] | > 1 | < 100
C[C@H](Nc1ncnc(N)c1C#Cc1ccc(F)cn1)c1nc2cccc(Cl)c2c(=O)n1-c1ccccc1 [Compound 48a, (S)-2-(1-(6-amino-5-((5-fluoropyridin-2-yl)ethynyl)pyrimidin-4-ylamino)ethyl)-5-chloro-3-phenylquinazolin-4(3H)-one] | > 1 | < 100
COc1ccc(C#Cc2c(N)ncnc2N[C@@H](C)c2nc3c(Cl)ccc(Cl)c3c(=O)n2-c2ccccc2)nc1 [Compound 10a, (S)-2-(1-(6-amino-5-((5-methoxypyridin-2-yl)ethynyl)pyrimidin-4-ylamino)ethyl)-5,8-dichloro-3-phenylquinazolin-4(3H)-one] | > 1 | < 100
Cc1cccc2nc([C@H](C)Nc3ncnc(N)c3C#Cc3ccc(F)cn3)n(-c3ccccc3)c(=O)c12 [Compound 54a, (S)-2-(1-((6-amino-5-((5-fluoropyridin-2-yl)ethynyl)pyrimidin-4-yl)amino)ethyl)-5-methyl-3-phenylquinazolin-4(3H)-one] | > 1 | < 100
C[C@H](Nc1ncnc(N)c1C#Cc1cnccn1)c1nc2cccc(Cl)c2c(=O)n1-c1cccc(CNS(C)(=O)=O)c1 [Compound 123a, (S)—N-(3-(2-(1-((6-amino-5-(pyrazin-2-ylethynyl)pyrimidin-4-yl)amino)ethyl)-5-chloro-4-oxoquinazolin-3(4H)-yl)benzyl)methanesulfonamide] | > 1 | < 100
C[C@H](Nc1ncnc(N)c1C#Cc1ccc(N)cn1)c1nc2cccc(Cl)c2c(=O)n1-c1cc(F)cc(F)c1 [Compound 34a, (S)-2-(1-(6-amino-5-((5-aminopyridin-2-yl)ethynyl)pyrimidin-4-ylamino)ethyl)-5-chloro-3-(3,5-difluorophenyl)quinazolin-4(3H)-one] | > 1 | < 100
C[C@H](Nc1ncnc(N)c1C#Cc1ncccn1)c1nc2cccc(Cl)c2c(=O)n1-c1ccccc1 [Compound 102a, (S)-2-(1-((6-amino-5-(pyrimidin-2-ylethynyl)pyrimidin-4-yl)amino)ethyl)-5-chloro-3-phenylquinazolin-4(3H)-one] | > 1 | < 100
COc1ccc(C#Cc2c(N)ncnc2N[C@@H](C)c2nc3c(F)cccc3c(=O)n2-c2ccccc2)nc1 [Compound 12a, (S)-2-(1-(6-amino-5-((5-methoxypyridin-2-yl)ethynyl)pyrimidin-4-ylamino)ethyl)-8-fluoro-3-phenylquinazolin-4(3H)-one] | > 1 | < 100
CCNS(=O)(=O)c1cccc(-n2c([C@H](C)Nc3ncnc(N)c3C#Cc3ccccn3)nc3cccc(Cl)c3c2=O)c1 [Compound 39a, (S)-3-(2-(1-(6-amino-5-(pyridin-2-ylethynyl)pyrimidin-4-ylamino)ethyl)-5-chloro-4-oxoquinazolin-3(4H)-yl)-N-ethylbenzenesulfonamide] | – | < 100
C[C@H](Nc1ncnc(N)c1C#Cc1cnc(N)nc1)c1nc2cccc(Cl)c2c(=O)n1-c1cc(F)cc(F)c1 [Compound 32a, (S)-2-(1-(6-amino-5-((2-aminopyrimidin-5-yl)ethynyl)pyrimidin-4-ylamino)ethyl)-5-chloro-3-(3,5-difluorophenyl)quinazolin-4(3H)-one] | – | < 100
C[C@H](Nc1ncnc(N)c1C#Cc1ccccn1)c1nc2cccc(Cl)c2c(=O)n1-c1cccc(S(N)(=O)=O)c1 [Compound 40a, (S)-3-(2-(1-(6-amino-5-(pyridin-2-ylethynyl)pyrimidin-4-ylamino)ethyl)-5-chloro-4-oxoquinazolin-3(4H)-yl)benzenesulfonamide] | – | < 100
